Here are results for nine compounds from patent US20080200404A1, “Novel Antimalarial 9A-Carbamoyl-Aminoalkyl and 9A-Thiocarbamoyl-Aminoalkyl Azalides” (priority 2005, published 2008).

What all share (format): cell-based
Test [1] relates to Plasmodium falciparum TM91C235. As to the kind of experiment: In vitro antimalarial [3H]-hypoxanthine incorporation assay, TM91C235. The settings on record: Plasmodium falciparum; P. falciparum TM91C235 (multiple drug resistant isolate), 72 hours exposure. In short, it runs like this: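 Growth was read by [3H]-hypoxanthine incorporation after 72 h total incubation, as CPM normalized to the mean of untreated infected controls. Erythrocytic-stage TM91C235 (0.4% parasitemia, 1% hematocrit, ALBUMAX medium without folate or PABA, 5% O2/5% CO2, 37° C) was first exposed 48 h to compound at three levels, 25–25,000 ng/ml, in duplicate.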

Test [2] has as its system Plasmodium falciparum clone CDC/Indochina III (W-2). As to the kind of experiment: In vitro antimalarial [3H]-hypoxanthine incorporation serial dilution assay, W2. The settings on record: Plasmodium falciparum; P. falciparum W2, 72 hours exposure. The source says:
The in vitro screens for intrinsic antimalarial activity were based on modifications of the procedures described by Desjardins R E, Canfield C J, Haynes J D, Chulay J D. (Quantitative assessment of antimalarial activity in vitro by a semiautomated microdilution technique. Antimicrob Agents Chemother. 1979 December; 16(6):710-8.), Chulay J D, Haynes J D, Diggs C L. (Plasmodium falciparum: Assessment of in vitro growth by [3H]hypoxanthine incorporation. Exp. Parasitol. 1983 55:138-146.), and Milhous W K, Weatherly N F, Bowdre J H, Desjardins R E. (In vitro activities of and mechanisms of resistance to antifol antimalarial drugs. Antimicrob Agents Chemother. 1985 April; 27(4):525-30.). The system was limited to the assessment of the intrinsic activity against the erythrocytic asexual life cycle (blood schizontocides). Two Plasmodium falciparum clones from CDC/Indochina III (W-2) and CDC/Sierra Leone I (D-6) (Oduola A M, Weatherly N F, Bowdre J H, Desjardins R E. Plasmodium falciparum: cloning by single-erythrocyte micromanipulation and heterogeneity in vitro. Exp Parasitol. 1988 66(1):86-95.) were used for all assays. TM91C235, a multiple drug resistant isolate from Thailand, was used for the prescreening assay. W-2 is resistant to chloroquine, quinine, and pyrimethamine and susceptible to mefloquine. D-6 tends to be more resistant to mefloquine and susceptible to chloroquine, quinine, and pyrimethamine. All documents cited in this paragraph are incorporated by reference in their entirety.
All parasites were maintained in continuous long term cultures in RPMI-1640 medium supplemented with 6% washed human A positive (A+)(erythrocytes, 25 mM Hepes, […], and 10% heat inactivated A+human plasma or ALBUMAX® (lipid-rich bovine serum albumin; Invitrogen, Carlsbad, Calif.). All cultures and assays were conducted at 37° C. under an atmosphere of 5% CO2 and 5% O2, with a balance of N2.
After the preincubation, [^3H]-hypoxanthine was added to each well of the MTP. (The assay relies on the incorporation of radiolabeled hypoxanthine by the parasites, which indicates reproduction, and inhibition of isotope incorporation was attributed to activity of known or candidate antimalarial drugs). After 72 hr of total incubation time, the MTP were frozen to lyse the erythrocytes and parasites. The parasite DNA was recovered by harvesting the lysate onto glass-fiber filter plates using a Packard FilterMate™ Cell Harvester. The radioactivity was counted on a Packard TopCount™ microplate scintillation counter. The results were recorded as counts per minutes (CPM) per well at each drug concentration divided by the arithmetic mean of the CPM from the three untreated infection parasite control wells.
The serial dilution assay was conducted using the same assay conditions and stock solution of the compound used for the preliminary screen, described above. Both the D-6 and the W-2 clones were used. The compounds were diluted two-fold over 11 different concentration ranges with a starting concentration that was based on the preliminary screen. For each drug, the concentration response profile was determined and 50% inhibitory concentrations (IC50) were determined by using a non-linear, logistic dose response analysis program. […] For each assay, the IC50 for each clone was determined against the known antimalarials chloroquine and mefloquine. These control values established the compound's relative parasite susceptibility profile compared to known antimalarials. […]
The in vitro potency of the compounds has been compared with that of azithromycin to better gauge compounds suitable for further testing. As described above, parasites were exposed for 72 hours. Data from the in vitro potency tests of azithromycin against the three parasite strains have been averaged, and these numbers have been used for identification of “active” macrolide compounds.

The subject of test [3] is Plasmodium falciparum clone CDC/Sierra Leone I (D-6). As to the kind of experiment: In vitro antimalarial [3H]-hypoxanthine incorporation serial dilution assay, D6. The settings on record: Plasmodium falciparum, D6, 72 h, P. falciparum D6, 72 hours exposure. In short, it runs like this:
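IC50 came from logistic fitting of eleven two-fold compound dilutions, read as [3H]-hypoxanthine uptake into parasite DNA relative to untreated infected wells after 72 h. Parasites were grown in A+ human erythrocytes (6%) in RPMI-1640 with plasma or ALBUMAX at 37° C, 5% CO2, 5% O2.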

Where [4] appears, read: compared with azithromycin, read-out: IC50 D6 (class symbol).

What is called IC50 is the midpoint of a concentration-inhibition curve.

The structures appear in SMILES notation. ≈ marks a conversion by molar mass, not a printed value. Where two headings read alike, the source gives them in different places.

As for `CC[C@H]1OC(=O)[C@H](C)[C@@H](O[C@H]2C[C@@](C)(OC)[C@@H](O)[C@H](C)O2)[C@H](C)[C@@H](O[C@@H]2O[C@H](C)C[C@H](N(C)C)[C@H]2O)[C@](C)(O)C[C@@H](C)CN(CCCNC(=O)Nc2ccc3c(c2)OCCCO3)[C@H](C)[C@@H](O)[C@]1(C)O.O=CO` [Example 84], the IC50 in test [1] worked out at 0.0618 µg/mL; in test [2], 0.042 µg/mL; in test [3] (read-out: IC50 D6), 0.0289 µg/mL.
Take `CC[C@H]1OC(=O)[C@H](C)[C@@H](O[C@H]2C[C@@](C)(OC)[C@@H](O)[C@H](C)O2)[C@H](C)[C@@H](O[C@@H]2O[C@H](C)C[C@H](N(C)C)[C@H]2O)[C@](C)(O)C[C@@H](C)CN(CCCNC(=O)Nc2ccc(CC#N)cc2)[C@H](C)[C@@H](O)[C@]1(C)O` [Example 63]: the IC50 in test [1] was 0.542 µg/mL (≈ 0.571 µM); in test [2], 0.141 µg/mL (≈ 0.149 µM); in test [3] (setting [4]), over 0.797 µg/mL.
As to `CC[C@H]1OC(=O)[C@H](C)[C@@H](O[C@H]2C[C@@](C)(OC)[C@@H](O)[C@H](C)O2)[C@H](C)[C@@H](O[C@@H]2O[C@H](C)C[C@H](N(C)C)[C@H]2O)[C@](C)(O)C[C@@H](C)CN(CCCNC(=S)NC(=O)c2ccccc2)[C@H](C)[C@@H](O)[C@]1(C)O` [Example 100], the IC50 in test [1] was determined as 0.275 µg/mL (≈ 0.288 µM); in test [2] it was 0.102 µg/mL (≈ 0.107 µM); in test [3] (read-out: IC50 D6), 0.284 µg/mL (≈ 0.298 µM).
As for `CCc1ccc(NC(=O)NCCCN2C[C@H](C)C[C@@](C)(O)[C@H](O[C@@H]3O[C@H](C)C[C@H](N(C)C)[C@H]3O)[C@@H](C)[C@H](O[C@H]3C[C@@](C)(OC)[C@@H](O)[C@H](C)O3)[C@@H](C)C(=O)O[C@H](CC)[C@@](C)(O)[C@H](O)[C@H]2C)cc1` [Example 60], the IC50 turned out to be 0.0933 µg/mL (≈ 0.0993 µM) in test [1], 0.0693 µg/mL (≈ 0.0738 µM) in test [2] and 0.212 µg/mL (≈ 0.226 µM) in test [3] (read-out: IC50 D6).
Turning to `CC[C@H]1OC(=O)[C@H](C)[C@@H](O[C@H]2C[C@@](C)(OC)[C@@H](O)[C@H](C)O2)[C@H](C)[C@@H](O[C@@H]2O[C@H](C)C[C@H](N(C)C)[C@H]2O)[C@](C)(O)C[C@@H](C)CN(CCCNC(=S)Nc2cccc(F)c2)[C@H](C)[C@@H](O)[C@]1(C)O.O=CO` [Example 131], the IC50 in test [1] came to 0.115 µg/mL; in test [2], 0.198 µg/mL; in test [3] (read-out: IC50 D6), 0.507 µg/mL.
Regarding `CC[C@H]1OC(=O)[C@H](C)[C@@H](O[C@H]2C[C@@](C)(OC)[C@@H](O)[C@H](C)O2)[C@H](C)[C@@H](O[C@@H]2O[C@H](C)C[C@H](N(C)C)[C@H]2O)[C@](C)(O)C[C@@H](C)CN(CCCNC(=S)Nc2ccc(OC)cc2)[C@H](C)[C@@H](O)[C@]1(C)O.O=CO` [Example 61], the IC50 was 0.436 µg/mL in test [1], 0.253 µg/mL in test [2] and over 0.797 µg/mL in test [3] (setting [4]).
In the case of `CC[C@H]1OC(=O)[C@H](C)[C@@H](O[C@H]2C[C@@](C)(OC)[C@@H](O)[C@H](C)O2)[C@H](C)[C@@H](O[C@@H]2O[C@H](C)C[C@H](N(C)C)[C@H]2O)[C@](C)(O)C[C@@H](C)CN(CCCNC(=S)NCc2ccco2)[C@H](C)[C@@H](O)[C@]1(C)O.O=CO` [Example 143], the IC50 turned out to be 0.234 µg/mL in test [1], 0.439 µg/mL in test [2] and 0.322 µg/mL in test [3] (read-out: IC50 D6).
Regarding `CC[C@H]1OC(=O)[C@H](C)[C@@H](O[C@H]2C[C@@](C)(OC)[C@@H](O)[C@H](C)O2)[C@H](C)[C@@H](O[C@@H]2O[C@H](C)C[C@H](N(C)C)[C@H]2O)[C@](C)(O)C[C@@H](C)CN(CCCNC(=S)Nc2ccc(S(=O)(=O)N3CCCCC3)cc2)[C@H](C)[C@@H](O)[C@]1(C)O` [Example 141], the IC50 in test [1] was 0.0731 µg/mL (≈ 0.068 µM); in test [2], 0.057 µg/mL (≈ 0.0531 µM); in test [3] (read-out: IC50 D6), 0.188 µg/mL (≈ 0.175 µM).
Regarding `CC[C@H]1OC(=O)[C@H](C)[C@@H](O[C@H]2C[C@@](C)(OC)[C@@H](O)[C@H](C)O2)[C@H](C)[C@@H](O[C@@H]2O[C@H](C)C[C@H](N(C)C)[C@H]2O)[C@](C)(O)C[C@@H](C)CN(CCCNC(=S)Nc2ccc(C3CC4CCC3C4)cc2)[C@H](C)[C@@H](O)[C@]1(C)O.O=CO` (stereo partly drawn) [Example 110], the figures for the IC50 in test [1], in test [2] and in test [3] (read-out: IC50 D6) were 0.111 µg/mL, 0.0461 µg/mL and 0.247 µg/mL, respectively.
